Experimental data published in patent US7795379B2, “Isolated nucleic acid molecules encoding cancer associated antigens, the antigens per se, and uses thereof” (Ludwig Institute for Cancer Research, priority 1999, dated 2010).

What was measured:
CD4^+ T cells = assay: IFN-gamma ELISPOT with overlapping NY-BR-1 18-mers, CD4+ T cells of NY-BR-1 positive patients; type: cell-based, human; details: IFN-gamma ELISPOT after presensitization with 18-mer, numbering by SEQ ID NO: 32
Method: (§1) CD4^+ and CD8^+ T lymphocytes were separated from PBMC of NY-BR-1 positive patients by magnetic beads (MiniMACS) and seeded into 48-well plates at a concentration of 2.5-5×10^5 cells per well in RPMI medium 1640 supplemented with 10% human serum, L-asparagine (50 mg/l), L-arginine (242 mg/l), and L-glutamine (300 mg/l). PBMC depleted of T cells were used as antigen presenting cells. After irradiation, these cells were incubated with 39 single peptides (10 μg/ml) spanning amino acids 1004-1397 of NY-BR-1(SEQ ID NO: 32) each of 18 amino acids in length and overlapping in 8 positions on each terminus, for 1 hour at room temperature and added to plates at a concentration of 1×10^6 cells per well. IL-2 and IL-4 (2.5 ng/ml and 50 U/ml, respectively) were added to CD4^+ T cell cultures, and IL-2 and IL-7 (2.5 ng/ml and 10 ng/ml, respectively) to CD8^+ T cells. Peptide specific T cell responses against the stimulating epitope were determined by IFN-gamma ELISPOT assays 6 to 12 days after presensitization.
(§2) Flat-bottomed, 96 well nitrocellulose plates were coated with IFN-γ mAb and incubated overnight at 4° C. After washing with PBS, the plates were blocked with 10% human AB serum for 1 hour at 37° C. Presensitized CD4^+ or CD8^+ T cells from (1×10^3 to 5×10^4) and 5×10^4 peptide-pulsed APC (autologous Dendritic Cells or Epstein Barr Virus transfected B cells) were added to each well and incubated for 20 hours in RPMI medium 1640 lacking both IL-2 and human serum. Plates were then washed thoroughly with PBS to remove cells, and biotinylated IFN-γ mAbs were added to each well. After incubation for 2 hours at 37° C., the plates were washed and developed with streptavidin-alkaline phosphase for 1 hour at room temperature. After washing, substrate (5-bromo-4-chloro-3-indolyl phosphate/nitroblue tetrazolium) was added and incubated for 5 minutes.
(§3) Both CD4^+ and CD8^+ T cells were collected from twenty patients, who had been diagnosed with cancer and expressed NY-BR-1, as determined via the methods set forth supra. These CD4^+ and CD8^+ T cells were then analyzed for spontaneous NY-BR-1 specific, CD4^+ and CD8^+ responses.
(§4) Lymphocytes, which had been purified in accordance with the standard methods set forth supra, were presensitized with synthetic 18 mers which overlapped each other, and spanned amino acids […] of SEQ ID NO: 32.
(§5) Following the presensitization, effector cell populations were tested for recognition of ELISPOT assays, with autologous, EBV transfected B cells, and T2 cell lines being used as the antigen presenting cells in the ELISPOT assays. ELISPOT assays were carried out as described supra.

CD8^+ T cells = assay: IFN-gamma ELISPOT with overlapping NY-BR-1 18-mers, CD8+ T cells of NY-BR-1 positive patients; type: cell-based, human; details: for recognized by CD8+ cells: IFN-gamma ELISPOT after presensitization with 18-mer, numbering by SEQ ID NO: 32
Method: as §1, §2, §3, §4, §5

CD8^+ cells = assay: ELISPOT assay (interferon gamma) of CTL stimulation by NY-BR-1 peptides pulsed onto T2 cells; type: cell-based, human; details: peptides pulsed onto irradiated T2 cells at 10 ug/ml; CD8+ effector cells presensitized with peptide; HLA-A2
Method: A series of peptides were synthesized, based upon the amino acid sequence of NY-BR-1, as set forth in SEQ ID NO: 23 and the concatenation of SEQ ID NOS: 30 & 23, as described supra and set forth at SEQ ID NO: 32. These were then tested for their ability to bind to HLA-A2 molecules and to stimulate CTL proliferation, using an ELISPOT assay. This assay involved coating 96-well, flat bottom nitrocellulose plates with 5 ug/ml of anti-interferon gamma antibodies in 100 ul of PBS per well, followed by overnight incubation. Purified CD8^+ cells, which had been separated from PBL samples via magnetic beads coated with anti-CD8 antibodies were then added, at 1×10^5 cells/well, in RPMI 1640 medium, that had been supplemented with 10% human serum, L-asparagine (50 mg/l), L-arginine (242 mg/l), L-glutamine (300 mg/l), together with IL-2 (2.5 ng/ml), in a final volume of 100 ul. CD8^+ effector cells were prepared by presensitizing with peptide, and were then added at from 5×103 to 2×10^4 cells/well. Peptides were pulsed onto irradiated T2 cells at a concentration of 10 ug/ml for 1 hour, washed and added to effector cells, at 5×10^4 cells/well. The plates were incubated for 16 hours at 37° C., washed six times with 0.05% Tween 20/PBS, and were then supplemented with biotinylated, anti-interferon gamma specific antibody at 0.5 ug/ml. After incubation for 2 hours at 37° C., plates were washed, and developed with commercially available reagents, for 1 hour, followed by 10 minutes of incubation with dye substrate. Plates were then prepped for counting, positives being indicated by blue spots. The number of blue spots/well was determined as the frequency of […] specific CTLs/well.
Experiments were run, in triplicate, and total number of CTLs was calculated. As controls, one of reagents alone, effector cells alone, or antigen presenting cells alone were used. The difference between the number of positives in stimulated versus non-stimulated cells, was calculated as the effective number of peptide specific CTLs above background.

CD8^+ T cell clones = assay: T cell stimulation assay: TNF-α production by peptide/HLA-A2 specific CTL clones with COS-7 transfectants (NY-BR-1 + HLA-A2); type: cell-based, human; details: COS-7 cells transfected with NY-BR-1 and HLA-A2; CD8+ T cell clones of breast cancer patient NW-1100
Method: Sequences encoding NY-BR-1 were excised from plasmid pQE9, via standard restriction enzyme digestion, and were cloned into BamHI-Hind III sites of commercially available plasmid pcDNA31 (−).
The resulting vectors were then transfected into COS-7 cells. To accomplish this, 2×10^4COS-7 cells were admixed with 150 ng of the construct described supra, and 150 ng of plasmid pcDNA-AmpI, which contained cDNA encoding HLA-A2. The standard DE AE-dextran chloroquine method was used. Transfectants were then incubated at 37° C. for 48 hours, and then tested in a T cell stimulation assay, after 24 hours, as described infra.
The transfectants were tested to determine if they could stimulate production of TNF-α by CTLs specific for complexes of HLA-A2 molecules and one of the peptides described supra. The CTLs used were CD8^+ T cell clones. […]
To test if the transfectants stimulated the CD8^+ cells, 5000 of these CD8^+ cells, in 100 μl RPMI supplemented with 10% human serum, and 25 U/ml of recombinant human IL-2 were added to micowells containing the transfectants. After 24 hours, 50 μl samples of supernatant were collected, and TNFα content was determined by testing cytotoxicity against WEHI 164 clone 13 cells, in an MTT colorimetric assay, which is a standard method for showing TNFα production.

[1] = molecular target: T1, serum samples from breast cancer patients and normal serum samples (Homo sapiens, UniProt Q9BXX3); assay: Western blotting of serum samples against recombinant NY-BR-1 protein fragments; type: binding
T1 construct: made in house
T1 sequence (Q9BXX3 1049-1244): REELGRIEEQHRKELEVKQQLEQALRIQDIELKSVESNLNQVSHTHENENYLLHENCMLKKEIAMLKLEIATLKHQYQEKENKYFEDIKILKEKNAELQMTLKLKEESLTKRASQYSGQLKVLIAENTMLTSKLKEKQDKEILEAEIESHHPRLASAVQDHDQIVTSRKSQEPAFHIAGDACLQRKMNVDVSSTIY
Method: The frequency of antibody response against NY-BR-1 in breast cancer patients was tested. To do this, a recombinant protein consisting of amino acids 993-1188 of SEQ ID NO: 23 was prepared. (This is the protein encoded by clone BR 17-128, referred to supra). A total of 140 serum samples were taken from breast cancer patients, as were 60 normal serum samples. These were analyzed via Western blotting, using standard methods.
An additional set of experiments was then carried out to determine if sera recognized the portion of NY-BR-1 protein with repetitive elements. To do this, a different recombinant protein, consisting of amino acids 405-1000 was made, and tested in Western blot assays.

EDIKILKEKNAELQMTLK [p1134-1151] was tested. Which “CD4+ cells reacted / recognized by CD4+ T cells” value (shortened to “CD4+ cells reacted / recognized”) (CD4^+ T cells) did it give?
The value was “reacted”.

Which “CD4+ cells reacted / recognized” value (CD4^+ T cells; listed as 1011-1021) does the source give for ENQKVKWEQELCSVRLTL [p1014-1031] here?
The value was “reacted”.

Which “CD4+ cells reacted / recognized” value (CD4^+ T cells) does the source give for FNYNNHLKNRIYQYEKEK [p1374-1391] here?
The value was “reacted”.

HENENYLLHENCMLKKEI [p1094-1111] was tested. Which “CD4+ cells reacted / recognized” value (CD4^+ T cells) did it give?
Its value is “reacted”.

HIAGDACLQRKMNVDVSS [p1224-1241] was tested. Which “recognized by CD8+ cells” value (CD8^+ T cells) did it give?
Its value is “recognized”.

With HLLKEKNEEIFNYNNHLK [p1364-1381] as the molecule, how does the “CD4+ cells reacted / recognized” value (CD4^+ T cells) read?
The value was “reacted”.

Which results are given for KINLNYAGDALRENTLVS [p1264-1281]?
CD4+ cells reacted / recognized by CD4+ T cells (CD4^+ T cells): reacted; recognized by CD8+ cells (CD8^+ T cells): recognized

How did the “reactive in ELISPOT (peptide specific CTLs above background)” value (CD8^+ cells) turn out when “LLSHGAVIEV [NY-BR-1 derived peptide, HLA-A2]” was run?
The value was “reactive”.

What about the “peptide/HLA-A2 complexes recognized by CD8+ T cells (TNFα production); naturally processed epitope” value (CD8^+ T cell clones) of the same molecule?
The value was “natural epitopes”.

Which “recognized by CD8+ cells” value (CD8^+ T cells) does the source give for LRENTLVSEHAQRDQRET [p1274-1291] here?
Its value is “recognized”.

For QQQLVHAHKKADNKSKIT [p1334-1351], which “recognized by CD8+ cells” value (CD8^+ T cells) is on record?
The value was “recognized”.

How did the “CD4+ cells reacted / recognized” value (CD4^+ T cells) turn out when QYQEKENKYFEDIKILKE [p1124-1141] was run?
Its value is “reacted”.

“SLDQKLFQL [NY-BR-1 derived peptide, HLA-A2]” was tested. Which “reactive in ELISPOT (peptide specific CTLs above background)” value (CD8^+ cells) did it give?
Its value is “reactive”.

What does the source list for “SLSKILDTV [NY-BR-1 derived peptide, HLA-A2]”?
reactive in ELISPOT (peptide specific CTLs above background) (CD8^+ cells): reactive; peptide/HLA-A2 complexes recognized by CD8+ T cells (TNFα production); naturally processed epitope (CD8^+ T cell clones): natural epitopes

TSRKSQEPAFHIAGDACL [p1214-1231] was tested. Which “recognized by CD8+ cells” value (CD8^+ T cells) did it give?
Its value is “recognized”.

What about the HLA restriction (CD8^+ T cells; recognized when pulsed onto T2 cells, patient 1) of the same molecule?
Its HLA restriction is “restricted to HLA-A2”.

For YSGQLKVLIAENTMLTSK [p1164-1181], which “CD4+ cells reacted / recognized” value (CD4^+ T cells) is on record?
The value was “reacted”.

B1: amino acids 405-1000: recombinant protein consisting of amino acids 405-1000 of NY-BR-1, the portion with repetitive elements (protein, UniProt Q9BXX3 405-1000, looked up, fragment)
chain: KFTWAAKGRPRKIAWEKKETPVKTGCVARVTSNKTKVLEKGRSKMIACPTKESSTKASANDQRFPSESKQEEDEEYSCDSRSLFESSAKIQVCIPESIYQKVMEINREVEEPPKKPSAFKPAIEMQNSVPNKAFELKNEQTLRADPMFPPESKQKDYEENSWDSESLCETVSQKDVCLPKATHQKEIDKINGKLEESPNKDGLLKATCGMKVSIPTKALELKDMQTFKAEPPGKPSAFEPATEMQKSVPNKALELKNEQTLRADEILPSESKQKDYEENSWDTESLCETVSQKDVCLPKAAHQKEIDKINGKLEGSPVKDGLLKANCGMKVSIPTKALELMDMQTFKAEPPEKPSAFEPAIEMQKSVPNKALELKNEQTLRADEILPSESKQKDYEESSWDSESLCETVSQKDVCLPKATHQKEIDKINGKLEESPDNDGFLKAPCRMKVSIPTKALELMDMQTFKAEPPEKPSAFEPAIEMQKSVPNKALELKNEQTLRADQMFPSESKQKKVEENSWDSESLRETVSQKDVCVPKATHQKEMDKISGKLEDSTSLSKILDTVHSCERARELQKDHCEQRTGKMEQMKKKFCVLK
How did the “reactivity of the four antibody positive sera in Western blot” value ([1]; the four cancer sera positive for amino acids 993-1188) turn out when B1 was run?
Its value is “None of the four antibody positive sera reacted”.

B2: amino acids 993-1188: recombinant protein consisting of amino acids 993-1188 of SEQ ID NO: 23 (NY-BR-1) (protein)
chain: REELGRIEEQHRKELEVKQQLEQALRIQDIELKSVESNLNQVSHTHENENYLLHENCMLKKEIAMLKLEIATLKHQYQEKENKYFEDIKILKEKNAELQMTLKLKEESLTKRASQYSGQLKVLIAENTMLTSKLKEKQDKEILEAEIESHHPRLASAVQDHDQIVTSRKSQEPAFHIAGDACLQRKMNVDVSSTIY
For B2, which “reactivity of normal sera in Western blot” value ([1]; 60 normal serum samples) is on record?
The value was “negative”.

And the “cancer sera samples positive in Western blot” value ([1]; 140 serum samples from breast cancer patients)?
Its value is “Four”.
